From publication PMC5943930, “Identification of Inhibitors Targeting Ferredoxin-NADP^+ Reductase from the Xanthomonas citri subsp. citri Phytopathogenic Bacteria” (Molecules : A Journal of Synthetic Chemistry and Natural …, 2017)
Where two headings read alike, the source gives them in different places.

Legend:
[1] = molecular target: T1, XccFPR (Xanthomonas citri pv. citri, UniProt A0AAI7ZED9); assay: Inhibition constants and mechanisms, XccFPR diaphorase activity as a function of NADPH at increasing inhibitor concentrations; format: biochemical, Xanthomonas citri subsp. citri; details: 25 °C, 50 mM Tris/HCl, 2% DMSO, pH 8.0; for Ki: global fit to Lineweaver–Burk inhibition model; for Inhibition Mechanism: versus NADPH
T1 sequence (A0AAI7ZED9 1-259): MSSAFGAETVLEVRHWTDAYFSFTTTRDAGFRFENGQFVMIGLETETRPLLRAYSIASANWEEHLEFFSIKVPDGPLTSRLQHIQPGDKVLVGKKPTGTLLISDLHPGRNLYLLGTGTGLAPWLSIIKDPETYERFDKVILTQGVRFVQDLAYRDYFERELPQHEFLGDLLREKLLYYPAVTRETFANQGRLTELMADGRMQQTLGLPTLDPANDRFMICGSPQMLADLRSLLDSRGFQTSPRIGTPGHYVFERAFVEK
Method: (§1) When assayed in regular cuvettes, the DCPIP diaphorase activity of XccFPR was determined at 25 °C using a Cary 100 (Agilent Technologies Inc., Santa Clara, CA, USA) spectrophotometer as previously established. […] Positive controls (without any hit compound) were included in every reaction set. […] The DMSO concentration was kept at 2% in all samples. All kinetic experiments were performed in triplicate. The effect of the inhibitors on Km and kcat was determined by fitting the datasets to the Michaelis-Menten model. Additionally, data were globally fit to either Lineweaver-Burk equations for uncompetitive or non-competitive inhibition, yielding Ki for each compound (Equations (1) and (2), respectively).
(1) [e]/V0=(1+[I]/K^′i)/kcat+Km/kcat·1/[S]
(2) [e]/V0=(1+[I]/Ki)/kcat+(1+[I]/Ki)·Km/kcat·1/[S]

[2] = molecular target: T1, XccFPR; assay: NADPH-dependent DCPIP diaphorase activity of XccFPR, dose-response of inhibitors; format: biochemical, Xanthomonas citri subsp. citri; details: for inhibitory effect on XccFPR (in words): C12 derived compounds D1–D8
Method: as §1

[3] = system: Xcc; assay: Xcc growth inhibition on SB-agar plates; format: cell-based, Xanthomonas citri subsp. citri; details: 24 h at 28 °C
Method: (§2) To evaluate the sensitivity of Xcc to C5, C12, C17 and C19, 100 µL of a bacterial suspension (containing ~10^9 cells mL^−1) were mixed with 4 mL of SB medium (5 g L^−1 sucrose, 5 g L^−1 yeast extract, 5 g L^−1 peptone, and 1 g L^−1 glutamic acid, pH 7.0) and 0.7% (w v^−1) molten agar and poured onto SB-1.5% (w v^−1) agar plates supplemented with 25 µg mL^−1 ampicillin. After hardening, 2 µL of a 10, 100 and 1000 µM solution of each compound were added onto the agar surface. The zones of growth inhibition were photographed after incubation for 24 h at 28 °C. To assess the compound inhibition effect on Xcc growth in liquid medium, overnight cultures were subcultured into fresh SB medium at 2% inoculums and grown for 6 h in the presence of 1 mM C12. Samples were removed at 0, 2, 4 and 6 h, serially diluted and plated on SB-1.5% (w v^−1) agar. Colonies were counted after 48 h of incubation at 28 °C.

[4] = system: Xcc; assay: Xcc growth/viability in liquid SB medium (colony-forming capacity); format: cell-based, Xanthomonas citri subsp. citri; details: 1 mM compound, 28 °C, 0–6 h, control 2% DMSO
Method: as §2

[5] = molecular target: T1, XccFPR; assay: Thermal stability of XccFPR, midpoint temperature for flavin release (TmFAD); format: binding, Xanthomonas citri subsp. citri; details: 4 µM XccFPR
Source text: The increase in fluorescence of the FAD cofactor when dissociated from the protein upon thermal unfolding was used to evaluate XccFPR stability under different conditions and to assess related midpoint temperature for flavin release (TmFAD). Fluorescence thermal denaturation curves were monitored on 96-well plates using a Stratagene Mx3005P qPCR detection system (Agilent Technologies Inc., Santa Clara, CA, USA). A FAM filter set (λexc = 492 nm; λem = 516 nm), which overlaps the fluorescence spectrum of the isoalloxazine ring was used to evaluate XccFPR midpoint temperature for flavin release (TmFAD) when free or in the presence of selected compounds. Measurements were performed using 4 µM protein in 50 mM Tris/HCl, pH 8.0 in a 100 µL final volume. Each measurement was done in triplicate.

[6] = molecular target: T2, AnFNR (Nostoc sp., UniProt P21890); assay: NADPH-dependent DCPIP diaphorase activity of AnFNR, dose-response of inhibitors; format: biochemical, Anabaena PCC 7119; details: 95 µM DCPIP, 50 μM NADPH; for IC50 / ICmax (concentration causing maximal inhibition): 25 °C, 2% DMSO, pH 8.0, 4 nM AnFNR; for IC50: 50 mM Tris/HCl, compound 0–800 μM; for % Inhibition at ICmax: 4 nM AnFNR
T2 construct: made in house; host or cells: Escherichia coli
Method: We finally assessed the selectivity of our XccFPR inhibitors by testing the diaphorase activity of the plastidic Anabaena PCC 7119 FNR (AnFNR) at increasing concentrations of D2, D5 and D8 (Table 3).
as §1

[7] = molecular target: T1, XccFPR; assay: Steady-state kinetic parameters of XccFPR NADPH-dependent DCPIP diaphorase activity; format: biochemical, Xanthomonas citri subsp. citri
Method: When assayed in regular cuvettes, the DCPIP diaphorase activity of XccFPR was determined at 25 °C using a Cary 100 (Agilent Technologies Inc., Santa Clara, CA, USA) spectrophotometer as previously established. […] Positive controls (without any hit compound) were included in every reaction set. […] All kinetic experiments were performed in triplicate. The effect of the inhibitors on Km and kcat was determined by fitting the datasets to the Michaelis-Menten model. Additionally, data were globally fit to either Lineweaver-Burk equations for uncompetitive or non-competitive inhibition, yielding Ki for each compound (Equations (1) and (2), respectively).

[8] = molecular target: T1, XccFPR; details: ferricyanide as electron acceptor; cited from earlier work
[9] = 25 °C, 2% DMSO, pH 8.0, 20 nM XccFPR, 95 µM DCPIP, 50 μM NADPH
[10] = compound 2 mM, NADP+ 50 µM, DMSO 2 %
[11] = compound 1 mM, NADP+ 50 µM, DMSO 2 %

T2 sequence (P21890 138-440 limits assumed): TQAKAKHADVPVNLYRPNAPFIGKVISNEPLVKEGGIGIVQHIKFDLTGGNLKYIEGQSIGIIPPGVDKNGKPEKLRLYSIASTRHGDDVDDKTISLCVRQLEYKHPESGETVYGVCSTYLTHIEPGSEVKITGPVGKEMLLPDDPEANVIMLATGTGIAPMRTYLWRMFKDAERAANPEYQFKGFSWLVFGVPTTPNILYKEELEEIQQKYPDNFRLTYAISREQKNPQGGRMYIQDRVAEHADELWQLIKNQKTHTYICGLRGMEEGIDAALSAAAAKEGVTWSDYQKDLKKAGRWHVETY

In the case of `CSc1sc(NC(=O)Nc2ccc(F)c(Cl)c2)c(-c2ccc(Cl)cc2)c1C#N` [C12, 1-(3-chloro-4-fluorophenyl)-3-[3-(4-chlorophenyl)-4-cyano-5-(methylsulfanyl)thiophen-2-yl]urea], the Ki [1] is reported as 4.2 ± 0.9 µM, the “Inhibition Mechanism” value [1] is reported as “Non-competitive” and the IC50 [2] is reported as 7.7 ± 1 µM. The “Xcc growth inhibition on solid SB medium” value ([3]; 2 µL of 10, 100 and 1000 µM solutions) was “inhibited Xcc growth at all concentrations assayed”, the “lowest concentration assayed that inhibited Xcc growth” value ([3]; solid SB medium) was 10 µM and the “growth inhibition in liquid medium (bacterial viability)” value [4] was “decrease of bacterial viability”.
In the case of `CSc1sc(NC(=O)Nc2cccc(C(F)(F)F)c2)cc1C#N` [D2], the Ki [1] is reported as 28 ± 2 µM, the “Inhibition Mechanism” value [1] is reported as “uncompetitive inhibitor” and the “ICmax (concentration causing maximal inhibition)” value ([2]; 25 °C, 50 mM Tris/HCl, 2% DMSO, pH 8.0, 20 nM XccFPR, 95 µM DCPIP, 50 μM NADPH) is reported as 175 ± 1 µM. For the same compound, the IC50 ([2]; 25 °C, 50 mM Tris/HCl, 2% DMSO, pH 8.0, 20 nM XccFPR, 95 µM DCPIP, 50 μM NADPH, compound 0–800 μM) was 26 ± 1 µM, the “inhibitory effect on XccFPR (in words)” value [2] was “moderate IC50 but high concentrations were required to abolish XccFPR activity” and the “% Inhibition at ICmax” value [2, 9] was 100 ± 1%. For the same compound, the TmFAD ([5]; compound 2 mM, DMSO 2 %) was 41.7 ± 0.1 °C, the ΔTmFAD ([5]; compound 2 mM, DMSO 2 %) was 0.7±0.2 °C and the TmFAD [5, 10] was 46.0 ± 0.1 °C. For the same compound, the ΔTmFAD [5, 10] was 5.0±0.2 °C, the IC50 [6] was 27 ± 1 µM and the “ICmax (concentration causing maximal inhibition)” value [6] was 100 ± 2 µM. For the same compound, the “% Inhibition at ICmax” value [6] was 99 ± 11%.
With `O=C(Nc1ccc(Cl)cc1)Nc1nnc(SCc2ccc(Cl)cc2)s1` [D5, 1-[5-(4-Chloro-benzylsulfanyl)-[1,3,4]thiadiazol-2-yl]-3-(4-chloro-phenyl)-urea] the Ki [1] was 4.3 ± 1.1 µM, the “Inhibition Mechanism” value [1] was “Non-competitive” and the IC50 [2] was 6.6 ± 1.1 µM. For the same compound, the “% Inhibition at ICmax” value [2, 9] was 100 ± 2%, the TmFAD ([5]; compound 1 mM, DMSO 2 %) was 41.4 ± 0.1 °C and the ΔTmFAD ([5]; compound 1 mM, DMSO 2 %) was 0.4±0.2 °C. It also gave a TmFAD [5, 11] of 46.9 ± 0.1 °C, a ΔTmFAD [5, 11] of 5.9±0.2 °C and an IC50 [6] of 102 ± 1 µM. The “ICmax (concentration causing maximal inhibition)” value [6] was over 300 µM and the “% Inhibition at ICmax” value [6] was about 47%.
In the case of `Cc1c(S(=O)(=O)c2ccc(Cl)cc2)csc1C(=O)Nc1ccc(F)cc1F` [D8, 4-(4-chlorobenzenesulfonyl)-N-(2,4-difluorophenyl)-3-methylthiophene-2-carboxamide], the Ki [1] is reported as 62 ± 19 µM, the “Inhibition Mechanism” value [1] is reported as “Non-competitive” and the IC50 [2] is reported as 38 ± 1 µM. The “inhibitory effect on XccFPR (in words)” value [2] was “moderate IC50 but high concentrations were required to abolish XccFPR activity”, the “% Inhibition at ICmax” value [2, 9] was 100 ± 1% and the IC50 [6] was 122 ± 1 µM. For the same compound, the “ICmax (concentration causing maximal inhibition)” value [6] was over 350 µM and the “% Inhibition at ICmax” value [6] was about 73%.
In the case of `C[S+](C)[O-]` [DMSO], the ΔTmFAD ([5]; DMSO 2 %) is reported as -0.4±0.2 °C, the TmFAD ([5]; DMSO 2 %, 50 mM Tris/HCl) is reported as 40.6 ± 0.1 °C and the TmFAD ([5]; DMSO 5 %) is reported as 39.0 ± 0.1 °C. The TmFAD ([5]; DMSO 10 %) was 37.7 ± 0.1 °C, the “effect of solvent on XccFPR enzyme activity” value ([7]; DMSO below 3%) was “did not modify the kinetic parameters” and the “effect of solvent on XccFPR enzyme activity” value ([7]; DMSO percentages larger than 3%) was “decreased the maximal rate constant”.
In the case of `NC(=O)C1=CN([C@@H]2O[C@H](COP(=O)(O)OP(=O)(O)OC[C@H]3O[C@@H](n4cnc5c(N)ncnc54)[C@H](OP(=O)(O)O)[C@@H]3O)[C@@H](O)[C@H]2O)C=CC1` [NADPH, reference compound], the kcat [8] is listed as 122 ± 18 s⁻¹, the kcat ([7]; NADPH-dependent DCPIP diaphorase activity, 25 °C, pH 8.0) is listed as 22.6 ± 2.3 s⁻¹ and the Km ([7]; read-out: Km^NADPH, DCPIP as electron acceptor, 25 °C, pH 8.0) is listed as 6.6 ± 1.1 µM.
In the case of `NC(=O)c1ccc[n+]([C@@H]2O[C@H](COP(=O)([O-])OP(=O)(O)OC[C@H]3O[C@@H](n4cnc5c(N)ncnc54)[C@H](OP(=O)(O)O)[C@@H]3O)[C@@H](O)[C@H]2O)c1` [NADP^+], the TmFAD ([5]; NADP+ 50 µM, DMSO 2 %) is reported as 46.7 ± 0.1 °C, the ΔTmFAD ([5]; NADP+ 50 µM, DMSO 2 %) is reported as 5.7±0.2 °C and the TmFAD ([5]; NADP+ 50 µM, no DMSO) is reported as 47.2 ± 0.1 °C. For the same compound, the ΔTmFAD ([5]; NADP+ 50 µM, no DMSO) was 6.2±0.2 °C.
